Consider 5 compounds from PMC6021035, “Insights into biological activity of ureidoamides with primaquine and amino acid moieties” (Journal of Enzyme Inhibition and Medicinal Chemistry, 2018).

A short description of experiment [1]: Interaction with 1,1-diphenyl-2-picrylhydrazyl (DPPH). The settings on record: 100 μΜ. The procedure:
To a solution of DPPH in absolute ethanol, an appropriate volume of the tested compound solution (0.1 mM final concentration) dissolved in DMSO was added. Absorbance was recorded at 517 nm after 20 and 60 min at room temperature (Lambda 20 double beam spectrophotometer, Perkin-Elmer, UK). Experiments were repeated at least in triplicate and the standard deviation of absorbance was less than 10% of the mean[10]. NDGA was used under the same experimental conditions as a reference compound.

Experiment [2] deals with Candida albicans ATCC 10231. As to the kind of experiment: MIC determination (broth micro-dilution). Format: cell-based. The settings on record: ATCC10231. The procedure: (§1) Before analysis, compounds 5a–f were dissolved in 96% ethanol in a concentration of 2 mg/ml as stock solutions. Inoculums were prepared with fresh cultures of microbial strains, cultured on tryptic-soy agar or Sabouraud 2% (m/v) dextrose agar for 18 h (48–72 h for fungi) at 30 °C with physiological saline containing approximately […]. Inoculum density (0.5 McFarland units) was adjusted with a bio Mériex (France) densitometer. Minimum inhibitory concentration (MIC) was determined by the twofold micro-dilution method in Mu¨ller–Hinton broth for bacterial strains and RPMI 1640 + 2% m/v dextrose for fungi according to the EUCAST recommendations in a sterile 96-well flat-bottom plastic tissue culture plate. MIC was determined using a linear regression curve after incubation of compounds and reading the optical density at 570 nm using an iEMS microplate reader. […] All tests were performed in triplicate and expressed as the mean.

Experiment [3] has as its system Candida tropicalis ATCC 750. As to the kind of experiment: MIC determination (broth micro-dilution). Format: cell-based. The settings on record: ATCC750. The protocol: as §1
Experiment [4] relates to Issatchenkia orientalis Kudrjanzev ATCC 6258. As to the kind of experiment: MIC determination (broth micro-dilution). The settings on record: Pichia kudriavzevii, ATCC6258. The format is cell-based. The protocol: as §1
For experiment [5], the system named is Candida krusei ATCC 14243. As to the kind of experiment: MIC determination (broth micro-dilution). The format is cell-based. The settings on record: Pichia kudriavzevii, ATCC14243. The protocol:
as §1

The subject of experiment [6] is Aspergillus niger ATCC 16404. As to the kind of experiment: MIC determination (broth micro-dilution). The settings on record: ATCC16404. The format is cell-based. The protocol:
as §1

The test system of experiment [7] is Candida kefyr ATCC 2512. Description: MIC determination (broth micro-dilution). The format is cell-based. The settings on record: Kluyveromyces marxianus, ATCC2512. The procedure: as §1
The test system of experiment [8] is Candida albicans ATCC 90028. As to the kind of experiment: MIC determination (broth micro-dilution). The format is cell-based. The settings on record: ATCC90028. The procedure:
as §1

In experiment [9] the test system is Candida albicans ATCC 10231. As to the kind of experiment: Minimum biofilm eradication assay. Format: cell-based. The settings on record: ATCC10231, 48 h, read-out: MBEC. The procedure: (§2) We tested the susceptibility of different bacterial and yeast strains to compounds 5a–f by determining the minimum biofilm eradication concentration (MBEC). The test was performed in a sterile 96-well flat-bottom plastic tissue culture plate (TPP, Switzerland). Each well was filled with 100 µl of bacterial (10^7 CFUs/ml) or yeast (5 × 10^6 CFUs/ml) suspension. When the possibility of inhibition of yeast biofilm formation was tested, the wells were pre-treated with FBS (250 µl per well). Negative controls contained broth only. Positive controls were performed using standard antibacterial and antifungal drugs gentamycin and amphotericin B, respectively. The plates were covered and incubated aerobically for 24 h (bacteria) or 48 h (yeast) at 37 °C. Following the incubation period, each well was aspirated and washed three times with 250 µl of PBS and vigorously shaken in order to remove all non-adherent bacteria/yeast. The remaining attached cells were fixed with methanol (15 min) and the plates were left to dry overnight. The formed biofilm was stained with crystal violet (1%, 5 min). Excess stain was rinsed by placing the plate under running tap water and the plates were left to dry for 24 h. Adherent cells were resolubilized with acetic acid (33%, v/v). The optical density of each well was measured at 570 nm using a Multiscan plate reader. The MBEC value represents the lowest compound dilution at which microorganisms fail to grow.

Experiment [10] relates to Candida tropicalis ATCC 750. As to the kind of experiment: Minimum biofilm eradication assay. The settings on record: ATCC750, 48 h, read-out: MBEC. The format is cell-based. The protocol: as §2
Experiment [11] deals with Candida krusei ATCC 14243. As to the kind of experiment: Minimum biofilm eradication assay. The format is cell-based. The settings on record: Pichia kudriavzevii, ATCC14243, 48 h, read-out: MBEC. The protocol: as §2
In experiment [12] the test system is Candida kefyr ATCC 2512. Description: Minimum biofilm eradication assay. The format is cell-based. The settings on record: Kluyveromyces marxianus, ATCC2512, 48 h, read-out: MBEC. The procedure: as §2
The test system of experiment [13] is Candida albicans ATCC 90028. As to the kind of experiment: Minimum biofilm eradication assay. The settings on record: ATCC90028, 48 h, read-out: MBEC. Format: cell-based. The protocol:
as §2

For experiment [14], the system named is Enterococcus faecalis ATCC 29212. Description: Minimum biofilm eradication assay. The format is cell-based. The protocol:
as §2

The test system of experiment [15] is Staphylococcus aureus ATCC 6538. Description: Minimum biofilm eradication assay. Format: cell-based. The protocol:
as §2

For experiment [16], the system named is Pseudomonas aeruginosa ATCC 9027. As to the kind of experiment: Minimum biofilm eradication assay. The format is cell-based. The protocol: as §2
Experiment [17] relates to Pseudomonas aeruginosa ATCC 27853. As to the kind of experiment: Minimum biofilm eradication assay. The format is cell-based. The protocol: as §2
The subject of experiment [18] is Candida parapsylosis ATCC 22019. Description: Minimum biofilm eradication assay. Format: cell-based. The protocol: as §2
The test system of experiment [19] is Escherichia coli ATCC 8739. As to the kind of experiment: Minimum biofilm eradication assay. The format is cell-based. The protocol:
as §2

The subject of experiment [20] is Escherichia coli ATCC 10536. Description: Minimum biofilm eradication assay. Format: cell-based. The procedure: as §2
For experiment [21], the system named is Staphylococcus aureus ATCC 25213. Description: Minimum biofilm eradication assay. Format: cell-based. The procedure:
as §2

In another experiment the test system is E. coli (both strains). As to the kind of experiment: Minimum biofilm eradication assay, E. coli both strains. The format is cell-based, Escherichia coli. The protocol:
as §2, with “The MBEC value represents the lowest compound dilution at which microorganisms fail to grow.” left out

Experiment [22] has as its system Kocuria rhizophila ATCC 9341. As to the kind of experiment: MIC determination (broth micro-dilution). The format is cell-based. The settings on record: ATCC9341. The procedure: as §1
Experiment [23] has as its system Bacillus cereus ATCC 11778. Description: MIC determination (broth micro-dilution). The settings on record: ATCC11778. The format is cell-based. The procedure: as §1
Experiment [24] relates to Enterococcus hyrae ATCC 8043. Description: MIC determination (broth micro-dilution). The settings on record: ATCC8043. Format: cell-based. The protocol:
as §1

The test system of experiment [25] is Enterococcus faecalis ATCC 29212. Description: MIC determination (broth micro-dilution). Format: cell-based. The settings on record: ATCC29212. The procedure: as §1
Experiment [26] concerns Bacillus subtilis ATCC 6633. Description: MIC determination (broth micro-dilution). Format: cell-based. The settings on record: ATCC6633. The procedure:
as §1

For experiment [27], the system named is Staphylococcus aureus ATCC 6538. As to the kind of experiment: MIC determination (broth micro-dilution). The format is cell-based. The settings on record: ATCC6538. The protocol: as §1
In experiment [28] the test system is Pseudomonas aeruginosa ATCC 9027. Description: MIC determination (broth micro-dilution). The settings on record: ATCC9027. The format is cell-based. The procedure: as §1
Experiment [29] concerns Staphylococcus aureus ATCC 25923. As to the kind of experiment: MIC determination (broth micro-dilution). The format is cell-based. The settings on record: ATCC25923. The protocol:
as §1

Experiment [30] concerns Pseudomonas aeruginosa ATCC 27853. As to the kind of experiment: MIC determination (broth micro-dilution). Format: cell-based. The settings on record: ATCC27853. The protocol: as §1
The test system of experiment [31] is Burkholderia caepacia ATCC 25416. Description: MIC determination (broth micro-dilution). Format: cell-based. The settings on record: ATCC25416. The procedure: as §1
Experiment [32] relates to Candida parapsylosis ATCC 22019. As to the kind of experiment: MIC determination (broth micro-dilution). The settings on record: ATCC22019. The format is cell-based. The protocol: as §1
The test system of experiment [33] is Escherichia coli ATCC 8739. As to the kind of experiment: MIC determination (broth micro-dilution). The format is cell-based. The settings on record: ATCC8739. The procedure: as §1
The test system of experiment [34] is Escherichia coli ATCC 10536. As to the kind of experiment: MIC determination (broth micro-dilution). Format: cell-based. The settings on record: ATCC10536. The procedure:
as §1

Experiment [35] relates to Staphylococcus aureus ATCC 25213. As to the kind of experiment: MIC determination (broth micro-dilution). The format is cell-based. The settings on record: ATCC25213. The procedure:
as §1

A short description of experiment [36]: Inhibition of linoleic acid peroxidation (LP), AAPH-initiated. The arrangement: tested at 100 µM. The settings on record: 100 μΜ, 37 °C. The procedure:
To initiate lipid peroxidation, the free radical AAPH was used[10]. The final solution in the UV cuvette consisted of 10 µl sodium linoleate solution (c = 16 mM) and 0.93 ml phosphate buffer pH 7.4 (c = 50 mM). Afterwards, 10 µl of the tested compound solution in DMSO (final concentration 0.1 mM) and 50 µl of AAPH solution (c = 40 mM) were added. The experiment was performed at 37 °C under air. Oxidation of linoleic acid sodium salt was monitored at 234 nm. The assay was repeated at least in triplicate and the standard deviation of absorbance was less than 10% of the mean. Trolox was used under the same experimental conditions as a reference compound.

≈ marks a conversion by molar mass, not a printed value.

Turning to `CC(Cc1ccc(O)c(O)c1)C(C)Cc1ccc(O)c(O)c1` (centres unmarked) [NDGA, nordihydroguaiaretic acid, reference compound], the “DPPH-reducing ability 20 min” value in [1] (20 min) stood at 83.0 ± 1.0%. Also, in experiment [1] (60 min), the “DPPH-reducing ability 60 min” value stood at 91.0 ± 1.7%.
As for `C[C@@H]1[C@H](O)[C@@H](C)/C=C/C=C/C=C/C=C/C=C/C=C/C=C/[C@H](O[C@@H]2O[C@H](C)[C@@H](O)[C@H](N)[C@@H]2O)C[C@@H]2O[C@](O)(C[C@@H](O)C[C@@H](O)[C@H](O)CC[C@@H](O)C[C@@H](O)CC(=O)O[C@H]1C)C[C@H](O)[C@H]2C(=O)O` [Amph, amphotericin B, reference compound], the MIC (in experiment [2]; in [3]; in experiment [4]; in experiment [5]; in experiment [6]; with Candida kefyr ATCC 2512 [7]) was 0.5 µg/mL (≈ 0.541 µM) each time. Moreover, the lowest concentration to inhibit growth in [8] (MIC) was 0.5 µg/mL (≈ 0.541 µM). Further, the minimal effective concentration in experiment [9] was 25 µg/mL; in [10], 50 µg/mL; in experiment [11], 50 µg/mL; in the experiment on Candida kefyr ATCC 2512 [12], 25 µg/mL; in experiment [13], 25 µg/mL.
gentamycin [reference compound]: the MBEC is 50 µg/mL in experiment [14]; 12.5 µg/mL in experiment [15]; 50 µg/mL in [16]; 50 µg/mL in experiment [17]; 50 µg/mL in [18]; 25 µg/mL in experiment [19]. Besides, the MBEC in experiment [20] was 25 µg/mL; in experiment [21], 12.5 µg/mL; in the experiment with E. coli (both strains), 25 µg/mL.
As to `CN(C)[C@@H]1C(O)=C(C(N)=O)C(=O)[C@@]2(O)C(O)=C3C(=O)c4c(O)cccc4[C@@](C)(O)[C@H]3C[C@@H]12` [TC, tetracycline, reference compound], the MIC was determined as 0.63 µg/mL (≈ 1.42 µM) in [22]; 0.31 µg/mL (≈ 0.698 µM) in experiment [23]; 0.63 µg/mL (≈ 1.42 µM) in [24]; 0.31 µg/mL (≈ 0.698 µM) in [25]; 0.31 µg/mL (≈ 0.698 µM) in experiment [26]; 0.31 µg/mL (≈ 0.698 µM) in [27]. Also, the MIC in [28] is 3 µg/mL (≈ 6.75 µM); in experiment [29] it was 0.31 µg/mL (≈ 0.698 µM); in experiment [30], 3 µg/mL (≈ 6.75 µM); in [31], 3 µg/mL (≈ 6.75 µM); in experiment [32], 6.13 µg/mL (≈ 13.8 µM); in experiment [33], 2.5 µg/mL (≈ 5.63 µM). For the same compound, the MIC in experiment [34] was 2.5 µg/mL (≈ 5.63 µM); in experiment [35] it was 0.16 µg/mL (≈ 0.36 µM).
Regarding `Cc1c(C)c2c(c(C)c1O)CCC(C)(C(=O)O)O2` (centres unmarked) [Trolox, 6-hydroxy-2,5,7,8-tetramethylchroman-2-carboxylic acid, reference compound], in [36], the “LP inhibition (%) ± SD” value was found to be 96 ± 2.0%.
